Laboratory results from patent publication US11458189B2, “Cytoprotective drugs” (BALMES TRANSPLANTATION, priority 2017, dated 2022).
Starred links: 1 amine or outer side, 2 acyl side, 3 side chain; linkers in the order of their positions; H or OH if unused. Positions of bridges follow the written chain, without caps; N, C: chain ends. Non-standard residues stand in square brackets, D forms with d. Residues, ends and D or L forms follow the SMILES beside them. *: point of attachment. hTyr(3S-OH,4S-OH,3'-OSO3H) = N[C@H](C(=O)O)[C@H](O)[C@@H](O)c1ccc(O)c(OS(=O)(=O)O)c1; Orn(4R-OH,5R-OH) = O=C([C@H](C[C@@H](O)[C@@H](O)N[*:3])N[*:1])[*:2]; Pro(3S-OH,4S-Me) = C[C@H]1CN[C@H](C(=O)O)[C@H]1O; X1 = CCCCCOc1ccc(-c2cc(-c3ccc(C(=O)*)cc3)no2)cc1; Gln(3R-OH) = NC(=O)C[C@@H](O)[C@H](N)C(=O)O; Hyp = O=C(O)[C@@H]1C[C@@H](O)CN1

System: Human Hepatic Sinusoidal Endothelial Cells (HHSEC)
Assay: Oxygen and glucose deprivation followed by replenishment, cell survival (calcein AM), HHSEC
Format: cell-based
Protocol: Anidulafungin and micafungin were tested on Human Renal Glomerular Endothelial Cells (HRGEC, Innoprot P10665), on Human Renal Proximal Tubular Epithelial Cells (HRPTEpiC, Innoprot P10662), on Human Astrocytes (HA, caltag SC-1800), on Human Cardiac Microvascular Endothelial Cells (HCMEC, Caltag SC-6000), on Human Hepatic Sinusoidal Endothelial Cells (HHSEC, Caltag SC-5000), on Rat Primary Kidney Glomerular Endothelial cells (Cellbiologics, RN-6014G) and on Bovine Brain Microvascular Endothelial Cells (BBMEC, Caltag SC-B100).
In a first phase, these isolated, purified and cryopreserved cells are thawed and multiplied according to the supplier's recommendations in T75 or T175 flasks pre-coated with 2 μg of fibronectin/[…] (CORNING) for HRGEC, HCMEC, HHSEC and BBMEC, or 2 μg poly-L-lysin/cm^2 (Caltag SC-0403) for HRPTEpiC and HA, or 15 mL/flask 175 cm^2 gelatin-based solution (Cellbiologics) in the presence of endothelial cell supplemented growth medium ECM (P60104, INNOPROT, Caltag, SC-1001) for HRGEC, HCMEC, HHSEC, RPKGEC or BBMEC, or astrocyte cell supplemented growth medium AM (Caltag SC-1801) for HA or epithelial cell supplemented growth medium EpiCM (P60106, INNOPROT) for HRPTEpiC, at 37° C. under 5% CO2 and saturated humidity until their confluency. They are then harvested by trypsinization according to the method described by the supplier for exactly 5 minutes and then reseeded in new flasks a maximum of three times.
To carry out the oxygen and glucose deprivation test followed by their replenishment, the cells will be seeded in 96-well black plates with transparent flat bottom (GREINER). Once a sufficient number of cells has been obtained to allow seeding of 2000 to 15000 cells per well of 96-well plates depending on the cell type, the cells are seeded in these 96-well plates previously coated with an extracellular matrix as listed above for the flasks. The cells are cultured for 5 to 8 days according to the cell type, in the presence of the same growth medium as in the flask as described above except for HRGEC and HRPTEpiC for which DMEM (DUTSCHER) with 1 g/L of supplemented glucose is used, at 37° C. under 5% CO2 and saturated humidity to obtain confluency.
On the first day of oxygen and glucose deprivation, (5th, 6th, 7th or 8th day of culture), the culture conditions are drastically changed. The medium of all plates is removed and replaced by DMEM (DUTSCHER) medium without glucose and supplemented only with 1% penicillin-streptomycin (DUTSCHER). Anidulafungin or micafungin dissolved in dimethyl sulfoxide (DMSO) is then added to each well at the desired concentration, resulting in a maximum of 1% DMSO, and the plates are placed under hypoxia at <1% 02 and 5% CO2 at 37° C. for 24 hours of culture. Each compound was tested in a concentration range.
After 24 hours, the growth medium is changed and replaced by a richer medium, DMEM (DUTSCHER) at 1 g/L glucose and 2% FBS (INNOPROT) and 1% penicillin-streptomycin (DUTSCHER). These media will have been pre-equilibrated at 37° C. in advance. The cells are then returned to culture at 37° C. under 20% 02 and 5% CO2 for 22h.
After 22 hours of reoxygenation, the potential protective effect of anidulafungin or micafungin is measured by a cell viability test using calcein AM (CORNING), which is a dye substrate. The calcein AM can easily cross the cell membrane of the viable cells. The AM ester groups mask the part of the molecule that chelates calcium. Once inside the cells, the (non-fluorescent) calcein AM is hydrolyzed to (fluorescent) calcein by endogenous esterases. The resulting calcein molecule binds to calcium inside the cell and remains trapped inside the cell. These molecules emit strong green fluorescence when subjected to […] of a particular wavelength (495 nm). Since dead cells lack esterase activity, only living cells are labelled.
This cell viability test is performed in two steps. […]

[1] = [Micafungin] log μM 0 (first line printed 0, r12)
[2] = [Micafungin] log μM 0 (second line printed 0, r14)

CCCCCOc1ccc(-c2cc(-c3ccc(C(=O)N[C@H]4C[C@@H](O)[C@@H](O)NC(=O)[C@@H]5[C@@H](O)[C@@H](C)CN5C(=O)[C@H]([C@H](O)CC(N)=O)NC(=O)[C@H]([C@H](O)[C@@H](O)c5ccc(O)c(OS(=O)(=O)O)c5)NC(=O)[C@@H]5C[C@@H](O)CN5C(=O)[C@H]([C@@H](C)O)NC4=O)cc3)no2)cc1 [Micafungin, {5-[(1S,2S)-2-[(3S,6S,9S,11R,15S,18S,20R,21R,24S,25S,26S)-3-[(1R)-2-carbamoyl-1-hydroxyethyl]-11,20,21,25-tetrahydroxy-15-[(1R)-1-hydroxyethyl]-26-methyl-2,5,8,14,17,23-hexaoxo-18-[(4-{5-[4-(pentyloxy)phenyl]-1,2-oxazol-3-yl}benzene)amido]-1,4,7,13,16,22-hexaazatricyclo[22.3.0.0]heptacosan-6-yl]-1,2-dihydroxyethyl]-2-hydroxyphenyl}oxidanesulfonic acid] (X1-[Orn(4R-OH,5R-OH)]T[Hyp][hTyr(3S-OH,4S-OH,3'-OSO3H)][Gln(3R-OH)][Pro(3S-OH,4S-Me)]; lactam 1-C)
Globalfluo assay 1 [1]: 2600496 arbitrary units | Globalfluo assay 2 [1]: 2592730 arbitrary units | Globalfluo assay 3 [1]: 2666315 arbitrary units | Mean globalfluo [1]: 2619847 arbitrary units | Survival rate (%) [1]: 0% | Globalfluo assay 1 [2]: 3063920 arbitrary units | Globalfluo assay 2 [2]: 2647280 arbitrary units | Globalfluo assay 3 [2]: 2608353 arbitrary units | Mean globalfluo [2]: 2773184 arbitrary units | Survival rate (%) [2]: 1% | Globalfluo assay 1 ([Micafungin] log μM 0.4771213): 2619032 arbitrary units | Globalfluo assay 2 ([Micafungin] log μM 0.4771213): 2696453 arbitrary units | Globalfluo assay 3 ([Micafungin] log μM 0.4771213): 2858592 arbitrary units | Mean globalfluo ([Micafungin] log μM 0.4771213): 2724692 arbitrary units | Survival rate (%) ([Micafungin] log μM 0.4771213): 1% | Globalfluo assay 1 ([Micafungin] log μM 0.7781513): 2942319 arbitrary units | Globalfluo assay 2 ([Micafungin] log μM 0.7781513): 3052699 arbitrary units | Globalfluo assay 3 ([Micafungin] log μM 0.7781513): 2975927 arbitrary units | Mean globalfluo ([Micafungin] log μM 0.7781513): 2990315 arbitrary units | Survival rate (%) ([Micafungin] log μM 0.7781513): 2% | Globalfluo assay 1 ([Micafungin] log μM 0.90309): 2800146 arbitrary units | Globalfluo assay 2 ([Micafungin] log μM 0.90309): 3162662 arbitrary units | Globalfluo assay 3 ([Micafungin] log μM 0.90309): 3203256 arbitrary units | Mean globalfluo ([Micafungin] log μM 0.90309): 3055355 arbitrary units | Survival rate (%) ([Micafungin] log μM 0.90309): 3% | Globalfluo assay 1 ([Micafungin] log μM 1): 3210890 arbitrary units | Globalfluo assay 2 ([Micafungin] log μM 1): 3369543 arbitrary units | Globalfluo assay 3 ([Micafungin] log μM 1): 2819931 arbitrary units | Mean globalfluo ([Micafungin] log μM 1): 3133455 arbitrary units | Survival rate (%) ([Micafungin] log μM 1): 3% | Globalfluo assay 1 ([Micafungin] log μM 1.079181): 3383806 arbitrary units | Globalfluo assay 2 ([Micafungin] log μM 1.079181): 3457745 arbitrary units | Globalfluo assay 3 ([Micafungin] log μM 1.079181): 3493598 arbitrary units | Mean globalfluo ([Micafungin] log μM 1.079181): 3445050 arbitrary units | Survival rate (%) ([Micafungin] log μM 1.079181): 5% | Globalfluo assay 1 ([Micafungin] log μM 1.176091): 3454603 arbitrary units | Globalfluo assay 2 ([Micafungin] log μM 1.176091): 3676802 arbitrary units | Globalfluo assay 3 ([Micafungin] log μM 1.176091): 3618017 arbitrary units | Mean globalfluo ([Micafungin] log μM 1.176091): 3583141 arbitrary units | Survival rate (%) ([Micafungin] log μM 1.176091): 6% | Globalfluo assay 1 ([Micafungin] log μM 1.30103): 3383992 arbitrary units | Globalfluo assay 2 ([Micafungin] log μM 1.30103): 2974781 arbitrary units | Globalfluo assay 3 ([Micafungin] log μM 1.30103): 3188414 arbitrary units | Mean globalfluo ([Micafungin] log μM 1.30103): 3182396 arbitrary units | Survival rate (%) ([Micafungin] log μM 1.30103): 3% | Globalfluo assay 1 ([Micafungin] log μM −2): 2651037 arbitrary units | Globalfluo assay 2 ([Micafungin] log μM −2): 2880244 arbitrary units | Globalfluo assay 3 ([Micafungin] log μM −2): 2908835 arbitrary units | Mean globalfluo ([Micafungin] log μM −2): 2813372 arbitrary units | Survival rate (%) ([Micafungin] log μM −2): 1%
